Results as given in paper PMC6204527, “The Human Gut Colonizer Blastocystis Respires Using Complex II and Alternative Oxidase to Buffer Transient Oxygen Fluctuations in the Gut” (Frontiers in Cellular and Infection Microbiology, 2018).

How the values were obtained:
[1] = biological target: T1, Blastocystis alternative oxidase (AOX) (Blastocystis hominis, UniProt D3GDI7); assay: O2 uptake, Clark electrode, E. coli FN102 membranes; format: biochemical; details: 1 mM duroquinol; O2 co-substrate (250 μM); 50 mM Tris-HCl pH 7.5; 25 °C
T1 construct: full-length 304 aa (predicted 35 kDa), N-terminal 6xHis from pET-14b, expressed in heme-deficient E. coli FN102; E. coli membranes or whole cells
T1 sequence (D3GDI7 1-304): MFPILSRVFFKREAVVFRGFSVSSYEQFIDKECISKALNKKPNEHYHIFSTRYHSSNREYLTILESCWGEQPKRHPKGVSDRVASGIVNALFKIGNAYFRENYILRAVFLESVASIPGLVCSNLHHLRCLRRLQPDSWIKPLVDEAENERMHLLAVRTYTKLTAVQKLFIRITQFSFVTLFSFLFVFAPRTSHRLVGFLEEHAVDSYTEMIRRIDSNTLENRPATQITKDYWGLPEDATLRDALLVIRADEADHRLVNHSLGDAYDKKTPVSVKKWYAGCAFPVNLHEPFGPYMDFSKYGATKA

[2] = biological target: T1, Blastocystis alternative oxidase (AOX); assay: as above; format: biochemical; details: 1 mM duroquinol; 50 mM Tris-HCl pH 7.5; 25 °C; antimycin A 1 μM also added

## Cc1c(C)c(O)c(C)c(C)c1O [DQH2, duroquinol]
[1]
  O2 uptake, Clark electrode, E. coli FN102 membranes: Addition of duroquinol (Sigma), an AOX substrate, initiates oxygen consumption

## CCCCCCCCOC(=O)c1cc(O)c(O)c(O)c1 [OG, octylgallate]
[2]
  inhibition at 25 μM: Oxygen consumption is almost completely abated by the addition of octylgallate, an AOX inhibitor
